Laboratory results published in patent US9512175B2, “Macrocyclic inhibitors of flaviviridae viruses” (Gilead Sciences, Inc., priority 2012, dated 2016).
Read-outs that look alike come from different tables or passages of the source.

Columns and labels:
[1] = target: cyclophilin A (Homo sapiens, UniProt P62937); assay: Cyclophilin A TR-FRET competitive binding assay; details: IC50 ranges, competition with CsA-Cy5 for His-tagged CypA, two-hour incubation
Protocol: Cyclophilin A TR-FRET Competitive Binding Assay
Inhibitor potency was measured using a competitive binding assay with a time-resolved fluorescence resonance energy transfer (TR-FRET) readout. […] An IC50 value was calculated using a four-parameter logistic fit.

[2] = system: HCV replicon (Replicon 1a); assay: anti-HCV activity in Huh-7 cell line harboring a HCV replicon (Replicon 1a); format: cell-based; details: for inhibition at 1 µM: Hepatitis C virus, Huh-7, 72 h
[3] = read-out: Replicon 1a % inhibition at 1 μM, 1 μM, human hepatoma Huh-7 HCV replicon cells, 3 days, luciferase readout
[4] = read-out: Replicon 1a % inhibition at 1 μM

Chain of cyclophilin A (P62937 whole entry, species assumed): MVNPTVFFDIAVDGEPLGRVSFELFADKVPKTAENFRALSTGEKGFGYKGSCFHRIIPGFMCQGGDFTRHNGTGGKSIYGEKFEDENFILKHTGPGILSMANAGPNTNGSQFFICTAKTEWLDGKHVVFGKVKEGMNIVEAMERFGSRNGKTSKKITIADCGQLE

Row | Structure (SMILES) | IC50 ([1]; read-out: TR-FRET) [nM] | inhibition at 1 µM [2, 3] [%] | IC50 ([1]; TR-FRET) [nM] | inhibition at 1 µM [2, 4] [%] | Replicon 1a % inhibition at 1 μM ([2]; 1 μM, human hepatoma Huh-7 HCV replicon cells, 3 days, luciferase readout) [%]
1 | CC(C)[C@@H]1NC(=O)C2(/C=C/c3ccc4ccc(nc4c3)[C@@H](C)OC(=O)[C@@H]3CCCN(N3)C(=O)[C@H](C)NC1=O)COC2 [Compound 73] | < 100 | 94 | – | – | –
2 | CC(C)[C@@H]1NC(=O)C(CO)(CO)/C=C/c2ccc3ccc(nc3c2)[C@@H](C)OC(=O)[C@@H]2CCCN(N2)C(=O)[C@H](C)NC1=O [Compound 76] | < 100 | 63 | – | – | –
3 | CC(C)[C@@H]1NC(=O)[C@@](C)(COCC[Si](C)(C)C)/C=C/c2ccc3ccc(nc3c2)[C@@H](C)OC(=O)[C@@H]2CCCN(N2)C(=O)[C@H](C)NC1=O [Compound 77] | – | – | < 100 | 99 | –
4 | CC(C)[C@@H]1NC(=O)[C@@](C)(CO)/C=C/c2ccc3ccc(nc3c2)[C@@H](C)OC(=O)[C@@H]2CCCN(N2)C(=O)[C@H](C)NC1=O [Compound 78] | – | – | < 100 | 99 | –
5 | CC(C)[C@@H]1NC(=O)[C@](C)(COCC[Si](C)(C)C)/C=C/c2ccc3ccc(nc3c2)[C@@H](C)OC(=O)[C@@H]2CCCN(N2)C(=O)[C@H](C)NC1=O [Compound 79] | – | – | < 100 | 96 | –
6 | CC(C)[C@@H]1NC(=O)[C@](C)(CO)/C=C/c2ccc3ccc(nc3c2)[C@@H](C)OC(=O)[C@@H]2CCCN(N2)C(=O)[C@H](C)NC1=O [Compound 80] | – | – | < 100 | 97 | –
7 | CC(C)[C@@H]1NC(=O)[C@H](CC2CC2)/C=C/c2ccc3ccc(nc3c2)[C@@H](C)OC(=O)[C@@H]2CCCN(N2)C(=O)[C@H](C)NC1=O [Compound 81] | – | – | < 100 | 100 | –
8 | CC(C)[C@@H]1NC(=O)C(C)(C)/C=C/c2ccc3ccc(nc3c2)[C@@H](C)OC(=O)[C@@H]2CCCN(N2)C(=O)[C@H](CO)NC1=O [Compound 82] | < 100 | 99 | – | – | –
9 | CC(C)[C@@H]1NC(=O)[C@@H]([C@@H](C)O)/C=C/c2ccc3ccc(nc3c2)[C@@H](C)OC(=O)[C@@H]2CCCN(N2)C(=O)[C@H](C)NC1=O [Compound 83] | < 100 | 99 | – | – | –
10 | CC(C)[C@H]1C(=O)N[C@@H](C)C(=O)N2CCC[C@H](N2)C(=O)N[C@H](C)c2ccc3ccc(cc3n2)/C=C/C2(C)CCN1C2=O [Compound 84] | < 100 | 63 | – | – | –
11 | CC(C)[C@@H]1NC(=O)C(C)(C(C)O)/C=C/c2ccc3ccc(nc3c2)[C@@H](C)OC(=O)[C@@H]2CCCN(N2)C(=O)[C@H](C)NC1=O (stereo partly drawn) [Compound 89] | < 100 | 99 | – | – | –
12 | CC(C)[C@@H]1NC(=O)C(C)(C(C)O)/C=C/c2ccc3ccc(nc3c2)[C@@H](C)OC(=O)[C@@H]2CCCN(N2)C(=O)[C@H](C)NC1=O (stereo partly drawn) [Compound 90] | < 100 | – | – | – | 100
13 | CC(C)[C@@H]1NC(=O)C(C)(C)/C=C/c2ccc3ccc(nc3c2)[C@@H](C)OC(=O)[C@@H]2CCCN(N2)C(=O)[C@H]([C@@H](C)O)NC1=O [Compound 91] | < 100 | 99 | – | – | –
14 | CC(C)[C@@H]1NC(=O)C(C)(C)/C=C/c2ccc3ccc(nc3c2)[C@@H](C)OC(=O)[C@@H]2CCCN(N2)C(=O)[C@H](CC(=O)OC(C)(C)C)NC1=O [Compound 92] | < 100 | 100 | – | – | –
15 | CC(C)[C@@H]1NC(=O)C(C)(C)/C=C/c2ccc3ccc(nc3c2)[C@@H](C)OC(=O)[C@@H]2CCCN(N2)C(=O)[C@H](CC(=O)O)NC1=O [Compound 93] | < 100 | 68 | – | – | –
16 | CC(C)[C@@H]1NC(=O)C(C)(C)/C=C/c2ccc3ccc(nc3c2)[C@@H](C)OC(=O)[C@@H]2CCCN(N2)C(=O)[C@H](Cc2cn(C(c3ccccc3)(c3ccccc3)c3ccccc3)cn2)NC1=O [Compound 94] | < 100 | 96 | – | – | –
17 | CC(C)[C@@H]1NC(=O)C(C)(C)/C=C/c2ccc3ccc(nc3c2)[C@@H](C)OC(=O)[C@@H]2CCCN(N2)C(=O)[C@H](Cc2c[nH]cn2)NC1=O [Compound 95] | < 100 | 68 | – | – | –
18 | CC(C)[C@@H]1NC(=O)C(C)(C)/C=C/c2ccc3cnc(nc3c2)[C@@H](C)OC(=O)[C@@H]2CCCN(N2)C(=O)[C@H](C)NC1=O [Compound 96] | < 100 | 100 | – | – | –
19 | CC(C)[C@@H]1NC(=O)C(C)(C)/C=C/c2ccc3ccc(nc3c2)[C@@H](C)OC(=O)[C@@H]2CCCN(N2)C(=O)[C@H](CC(=O)N(C)C)NC1=O [Compound 97] | < 100 | 98 | – | – | –
20 | CC(C)[C@@H]1NC(=O)C(C)(C)/C=C/c2ccc3ccc(nc3c2)[C@@H](C)OC(=O)[C@@H]2CCCN(N2)C(=O)[C@H](CC(=O)N2CCCCC2)NC1=O [Compound 98] | < 100 | – | – | 95 | –
21 | CC(C)[C@@H]1NC(=O)C(C)(C)/C=C/c2ccc3ccc(nc3c2)[C@@H](C)OC(=O)[C@@H]2CCCN(N2)C(=O)[C@H](CC(=O)N2CCCC2)NC1=O [Compound 99] | < 100 | 96 | – | – | –

Row | Structure (SMILES) | IC50 ([1]; read-out: TR-FRET) [nM] | inhibition at 1 µM [2, 3] [%] | IC50 ([1]; TR-FRET) [nM] | inhibition at 1 µM [2, 4] [%] | Replicon 1a % inhibition at 1 μM ([2]; 1 μM, human hepatoma Huh-7 HCV replicon cells, 3 days, luciferase readout) [%]
22 | CC(C)[C@@H]1NC(=O)C(C)(C(C)(C)O)/C=C/c2ccc3ccc(nc3c2)[C@@H](C)OC(=O)[C@@H]2CCCN(N2)C(=O)[C@H](C)NC1=O (stereo partly drawn) [Compound 101] | < 100 | 99 | – | – | –
23 | CC(C)[C@@H]1NC(=O)[C@@](C)(CO)/C=C/c2ccc3ccc(cc3c2)[C@@H](C)OC(=O)[C@@H]2CCCN(N2)C(=O)[C@H](C)NC1=O [Compound 104] | < 100 | 98 | – | – | –
24 | CC(C)[C@@H]1NC(=O)C(C)(C)/C=C/c2ccc3ccc(nc3c2)[C@@H](C)OC(=O)[C@@H]2CCCN(N2)C(=O)[C@H](COC(F)F)NC1=O [Compound 106] | < 100 | 99 | – | – | –
25 | COC[C@@]1(C)/C=C/c2ccc3ccc(nc3c2)[C@@H](C)OC(=O)[C@@H]2CCCN(N2)C(=O)[C@H](C)NC(=O)[C@H](C(C)C)NC1=O [Compound 107] | < 100 | 100 | – | – | –
26 | CC(C)[C@@H]1NC(=O)C(C)(C)/C=C/c2ccc3ccc(nc3c2)[C@@H](C)OC(=O)[C@@H]2CCCN(N2)C(=O)[C@H](Cc2cscn2)NC1=O [Compound 110] | < 100 | 100 | – | – | –
27 | CC(C)[C@@H]1NC(=O)C(C)(C)/C=C/c2ccc3ccc(nc3c2)[C@@H](C)NC(=O)[C@@H]2CCCN(N2)C(=O)[C@H](C)NC1=O [Compound 111] | < 100 | 87 | – | – | –
28 | CC(C)[C@@H]1NC(=O)C(C)(C)/C=C/c2ccc3ccc(nc3c2)[C@@H](C)OC(=O)[C@@H]2CCCN(N2)C(=O)[C@H](COCC2(C)COC2)NC1=O [Compound 114] | < 100 | 99 | – | – | –
29 | CC(C)[C@@H]1NC(=O)C(C)(C)/C=C/c2ccc3ccc(nc3c2)C(C)N(C)C(=O)[C@@H]2CCCN(N2)C(=O)[C@H](C)NC1=O (stereo partly drawn) [Compound 115] | < 100 | 92 | – | – | –
30 | CC(C)[C@@H]1NC(=O)C(C)(C)/C=C/c2ccc3ccc(nc3c2)[C@@H](C)OC(=O)[C@]2(C)CCCN(N2)C(=O)[C@H](C)NC1=O [Compound 119] | < 100 | 98 | – | – | –
31 | CC(C)[C@@H]1NC(=O)C(C)(C)/C=C/c2ccc3ccc(nc3c2)[C@@H](C)NC(=O)[C@@H]2CCCN(N2)C(=O)[C@H](Cc2ccccc2)NC1=O [Compound 120] | < 100 | 91 | – | – | –
32 | CC(C)[C@@H]1NC(=O)C2(/C=C/c3ccc4ccc(nc4c3)[C@@H](C)NC(=O)[C@@H]3CCCN(N3)C(=O)[C@H](C)NC1=O)CCC(F)(F)CC2 [Compound 122] | < 100 | 96 | – | – | –
33 | CC(C)[C@@H]1NC(=O)C2(/C=C/c3ccc4ccc(nc4c3)[C@@H](C)OC(=O)[C@@H]3CCCN(N3)C(=O)[C@H](C)NC1=O)CCOC(C)(C)C2 (stereo partly drawn) [Compound 123] | < 100 | 100 | – | – | –
34 | CC[C@H](C)[C@@H]1NC(=O)C(C)(C)/C=C/c2ccc3ccc(nc3c2)[C@@H](C)OC(=O)[C@@H]2CCCN(N2)C(=O)[C@H](C)NC1=O [Compound 125] | < 100 | 100 | – | – | –
35 | CC(C)[C@@H]1NC(=O)C2(/C=C/c3ccc4ccc(nc4c3)[C@@H](C)OC(=O)[C@@H]3CCCN(N3)C(=O)[C@H](C)NC1=O)CCN(C(=O)OC(C)(C)C)CC2 [Compound 126] | < 100 | 100 | – | – | –
36 | CC(C)[C@@H]1NC(=O)C2(/C=C/c3ccc4ccc(nc4c3)[C@@H](C)OC(=O)[C@@H]3CCCN(N3)C(=O)[C@H](C)NC1=O)CCNCC2 [Compound 127] | < 100 | 2 | – | – | –
37 | CCN1CCC2(/C=C/c3ccc4ccc(nc4c3)[C@@H](C)OC(=O)[C@@H]3CCCN(N3)C(=O)[C@H](C)NC(=O)[C@H](C(C)C)NC2=O)CC1 [Compound 129] | < 100 | – | – | 96 | –
38 | CC(C)[C@@H]1NC(=O)C2(/C=C/c3ccc4ccc(nc4c3)[C@@H](C)OC(=O)[C@@H]3CCCN(N3)C(=O)[C@H](C)NC1=O)CCN(S(C)(=O)=O)CC2 [Compound 130] | < 100 | 100 | – | – | –
39 | CC(C)[C@@H]1NC(=O)C2(/C=C/c3ccc4ccc(nc4c3)[C@@H](C)OC(=O)[C@@H]3CCCN(N3)C(=O)[C@H](C)NC1=O)CCN(CC#N)CC2 [Compound 131] | < 100 | – | – | 77 | –
40 | COC(=O)N1CCC2(/C=C/c3ccc4ccc(nc4c3)[C@@H](C)OC(=O)[C@@H]3CCCN(N3)C(=O)[C@H](C)NC(=O)[C@H](C(C)C)NC2=O)CC1 [Compound 132] | < 100 | – | – | 100 | –
41 | CC(C)[C@@H]1NC(=O)C2(/C=C/c3ccc4ccc(nc4c3)[C@@H](C)OC(=O)[C@@H]3CCCN(N3)C(=O)[C@H](C)NC1=O)CCN(C(=O)N1CCCC1)CC2 [Compound 133] | < 100 | 98 | – | – | –
42 | CC(C)[C@@H]1NC(=O)C2(/C=C/c3ccc4ccc(nc4c3)[C@@H](C)OC(=O)[C@@H]3CCCN(N3)C(=O)[C@H](C)NC1=O)CCN(S(=O)(=O)CC1CC1)CC2 [Compound 134] | < 100 | 99 | – | – | –
